According to patent publication US8642647B2, “N1-benzo[1,3]dioxol-5-ylmethyl-N2-substituted biguanide derivative, preparation method thereof, and pharmaceutical composition containing same” (Hanall Biopharma Co., Ltd., priority 2008, dated 2014):
Several values for one entry are separate records, joined by “and”; a condition that tells them apart may be missing. Equal values may be shown once. Where a name gives a salt, the structure may show the parent alone.

Legend:
HepG2 cells [1] = experiment: Measurement of cholesterol synthesis inhibitory ability; type: cell-based; conditions: HepG2 cells; for Cholesterol (100 μM) aver.: 100 μM compound; for Cholesterol (100 μM) aver. / Cholesterol (500 μM) aver.: 24 hours, content of cholesterol formed, lower value = stronger inhibition; for Cholesterol (500 μM) aver.: 500 μM compound
Experimental: (§1) 2 mM metformin was used as a comparative compound for each of the plates (control group).
A cholesterol synthesis inhibitory ability, which is an important function of AMPK (AMP-activated protein kinase), was measured using HepG2 cells (ATCC: American Type Culture Collection) as a hepatic cell model according to the following procedure.
The hepatic cell model HepG2 cells were cultured in 1% serum-containing media (DMEM (Gibco), FBS (Gibco)) for 24 hours, and then treated with 100 μM or 500 μM of each of the compounds prepared in Examples for 24 hours. Then, the cells were disrupted with a lysis solution (0.1 M potassium phosphate, pH 7.4, 0.05 M NaCl, 5 mM cholic acid, 0.1% Triton X-100 (Sigma)). To the disrupted cells was added the same volume of a reaction solution (2 U/ml of a cholesterol oxidizing agent, 2 U/ml of a peroxidase, 0.2 U/ml of a cholesterol esterase, and 300 μM of Amplex red as a fluorescent factor (Molecular Probe)), which was allowed to react at 37° C. for 30 minutes. After completion of the reaction, the content of cholesterol formed in the cell lysates was measured at a wavelength of 560/590 nm (ex/em) using a fluorescence microscope.
A lower measurement value means an increased cholesterol synthesis inhibitory ability.

HepG2 cells [2] = experiment: Measurement of triglyceride synthesis inhibitory ability; type: cell-based; conditions: HepG2 cells; for Triglyceride (100 μM) aver.: 100 μM compound; for Triglyceride (100 μM) aver. / Triglyceride (500 μM) aver.: 24 hours, content of triglyceride formed, lower value = stronger inhibition; for Triglyceride (500 μM) aver.: 500 μM compound
Experimental: as §1
HepG2 cells (ATCC: American Type Culture Collection) were cultured in 1% serum-containing media (DMEM (Gibco), FBS (Gibco)) for 24 hours, and then treated with 100 μM or 500 μM of each of the compounds prepared in Examples for 24 hours. Then, the cells were disrupted with a lysis solution (0.1 M potassium phosphate, pH 7.4, 0.05 M NaCl, 5 mM cholic acid, 0.1% Triton X-100). To the disrupted cells was added the same volume of a reaction solution (0.76 U/ml of a glycerol kinase (Asan Pharmaceutical Co., Ltd.), […] of a peroxidase (Asan Pharmaceutical Co., Ltd.), 22.2 U/ml of a glycerol oxidizing agent (Asan Pharmaceutical Co., Ltd.), and 300 μM of Amplex red as a fluorescent factor (Molecular Probe)), which was allowed to react at 37° C. for 30 minutes. After completion of the reaction, the content of triglyceride formed in the cell lysates was measured at a wavelength of 560/590 nm (ex/em) using a fluorescence microscope.
A lower measurement value means an increased triglyceride synthesis inhibitory ability.

HepG2 cells [3] = experiment: Measurement of gluconeogenesis inhibitory ability; type: cell-based; conditions: for Gluconeogenesis inhibition (100 μM) aver. / activity at 100 µM: 100 μM compound, 24 hours, content of glucose formed from 14C-lactate, lower value = stronger inhibition; for activity at 100 µM: Homo sapiens, HepG2, 24 h, read-out: Gluconeogenesis inhibition (100 μM) aver.
Experimental: as §1
HepG2 cells (ATCC: American Type Culture Collection) were cultured in 10% serum-containing high glucose media, transferred to no serum-containing low glucose media (DMEM (Gibco), FBS (Gibco)), and then treated with 100 μM of each of the compounds for 24 hours. Then, the cells were treated with 0.5 μCi ^14C-lactate (Amersham Pharmacia) and 10 mM L-lactate (Sigma), and cultured for 4 hours. After cultivation, the media were removed therefrom, and the cells were washed with PBS, treated with 0.1N NaOH and kept at room temperature for 1 hour. Then, the cells were neutralized with 1N HCl, and the content of glucose formed in the cells was measured with a liquid scintillation counter.
A lower measurement value means an increased gluconeogenesis inhibitory ability.

C2C12 cells = experiment: Measurement of glucose absorption ability; type: cell-based; conditions: for Glucose absorption (100 μM) aver.: 100 μM compound with 1 μM insulin, 24 hours, differentiated C2C12 cells, 3H-deoxy-glucose, higher value = stronger, more than 200% counts as glucose absorption ability
Experimental: as §1
C2C12 cells (ATCC: American Type Culture Collection), a muscle cell model, were induced to differentiate into muscle cells in 2% bovine fetal serum-containing media (DMEM (Gibco), FBS (Gibco)) for 6 days. The C2C12 cells which differentiated into muscle cells were transferred to serum-free low glucose media (DMEM (Gibco), FBS (Gibco)), treated with 100 μM of each of the compounds, and then cultured with 1 μM of insulin for 24 hours. After cultivation, the cells were treated with 1 μCi ^3H-deoxy-glucose (Amersham Pharmacia) and 10 μM deoxy-glucose (Sigma) at 37° C. for 15 minutes. The media were removed therefrom, and the cells were washed twice with PBS (phosphate buffered saline). The washed cells were treated with 0.1N NaOH and neutralized with 1N HCl. The content of glucose absorbed into the cells was measured with a liquid scintillation counter.
A higher measurement value means a stronger ability to reduce insulin resistance.

[4] = Metformin 2 mM, one value per plate

melting point [°C]	Compound	Cholesterol (100 μM) aver. (HepG2 cells [1])	Cholesterol (500 μM) aver. (HepG2 cells [1])	Triglyceride (100 μM) aver. (HepG2 cells [2])	Triglyceride (500 μM) aver. (HepG2 cells [2])	Gluconeogenesis inhibition (100 μM) aver. (HepG2 cells [3]; HepG2 cells)	Glucose absorption (100 μM) aver. (C2C12 cells) [%]	effect in inhibiting gluconeogenesis better than that of the control group (HepG2 cells [3]; 100 μM compound versus 2 mM metformin)	activity at 100 µM (HepG2 cells [3]; HepG2 cells) [%]	Cholesterol aver. (control group) (HepG2 cells [1]; [4])	Triglyceride aver. (control group) (HepG2 cells [2]; [4])	Gluconeogenesis inhibition aver. (control group) (HepG2 cells [3]; Metformin 2 mM, HepG2 cells, one value per plate)	Glucose absorption aver. (control group) (C2C12 cells; Metformin 2 mM, C2C12 cells, one value per plate)	Gluconeogenesis inhibition (100 μM) aver. (HepG2 cells [3]; HepG2 cells, 100 µM)
196.1 to 198.6	N=C(N)NC(=Nc1cccc2ccccc12)NCc1ccc2c(c1)OCO2 (as salt: hydrochloride) [Example 3, N1-benzo[1,3]dioxol-5-ylmethyl-N2-(1-naphthyl)biguanide hydrochloride]													
	CCc1cc(Cl)ccc1NC(=N)NC(=N)NCc1ccc2c(c1)OCO2.Cl [Example 8, N1-benzo[1,3]dioxol-5-ylmethyl-N2-(2-ethyl-4-chloro)phenyl biguanide hydrochloride]	−1.48	28.1	3.35	19.3	96.20	14.21							
141.7 to 155.4	CC(C)(C)CC(C)(C)N=C(NCc1ccc2c(c1)OCO2)NC(=N)N.Cl [Example 9, N1-benzo[1,3]dioxol-5-ylmethyl-N2-t-octyl biguanide hydrochloride]	37.3	−7.10	82.6	−1.23			at least 20 times	47.5					
143.9 to 158.1	CN=C(NCc1ccc2c(c1)OCO2)NC(=N)N.Cl [Example 17, N1-benzo[1,3]dioxol-5-ylmethyl-N2-methyl biguanide hydrochloride]	55.85	12.19	96.55	53.45				90.2					
	Cl.N=C(NCc1ccc2c(c1)OCO2)NC(=N)NCC1CC1 [Example 21, N1-benzo[1,3]dioxol-5-ylmethyl-N2-cyclopropanemethyl biguanide hydrochloride]	54.92	15.61	108.88	83.07	88.12	162.2							
	Cl.N=C(NCc1ccc2c(c1)OCO2)NC(=N)Nc1ccc(-c2ccccc2)cc1 [Example 35, N1-benzo[1,3]dioxol-5-ylmethyl-N2-(4-biphenyl)biguanide hydrochloride]	9.93	23.56	18.86	14.13	2.28	39.19							
	CN(C)C(=N)N=C(N)N [Metformin, metformin, reference compound]									73.31 and 74.50 and 85.91 and 70.69	74.57 and 69.88 and 73.61 and 70.05	64.50 and 59.11 and 53.09 and 78.33	253.20% and 336.45% and 291.63% and 170.94%	
	N1-benzo[1,3]dioxol-5-ylmethyl-N2-(1-adamantyl)biguanide hydrochloride (isomer) [Example 28]	73.67	30.11	89.72	28.87		2.20							79.17
	N1-benzo[1,3]dioxol-5-ylmethyl-N2-(1-adamantyl)biguanide hydrochloride (isomer) [Example 29]	43.03	67.50	101.52	81.39		140.2							92.07
	N1-benzo[1,3]dioxol-5-ylmethyl-N2-t-butyl biguanide hydrochloride [Example 4]	27.6	11.0	89.8	70.1	100.2	162.5							
